Source: US20120184542A1, “PYRIDO PYRIMIDINES” (priority 2011, published 2012)
Where a name gives a salt, the structure may show the parent alone. Read-outs that look alike come from different tables or passages of the source.

Columns and labels:
Human DYRK1B = target: T1, Human DYRK1B (Homo sapiens, UniProt Q9Y463); experiment: DYRK1B Kinase TR-FRET (IMAP-Tb) Assay; assay type: biochemical; details: for inhibition at 10 µM: read-out: % inhibition of DYRK1B at 10 μM test compound concentration; for IC50: TR-FRET (IMAP-Tb), ATP 70 μM, 37° C. 60 minutes
T1 construct: purchased Invitrogen PR8350B (former PV4649)

Human DYRK1A = target: T2, Human DYRK1A (Homo sapiens, UniProt Q13627); experiment: DYRK1A Kinase TR-FRET (IMAP-Tb) Assay; assay type: biochemical; details: for inhibition at 10 µM: read-out: % inhibition of DYRK1A at 10 μM test compound concentration; for IC50: TR-FRET (IMAP-Tb), ATP 70 μM, 37° C. 60 minutes, read-out: Enzyme IC50 (μM) DYRK1A
T2 construct: purchased Invitrogen PV3997
Description: The kinase TR-FRET (IMAP-Tb) assay uses a fluorescence labeled substrate peptide in the kinase reaction. Upon phosphorylation by the kinase, phosphopeptide is produced, which will be detected by the binding solution provided in IMAP TR-FRET binding kit. After the completion of the kinase reaction, the reaction will be stopped by adding the binding solution containing terbium tracer. This tracer is immobilized on the surface of the IMAP beads, which also contain metal ions on the beads that bind to the phospho-groups of the products. Thus the phosphorylated product of the reaction can enter into close proximity to the tracer, producing resonance energy transfer. Due to the long lifetime of terbium (Tb) fluorescence the detection can be run in time resolved mode, which virtually eliminates fluorescence interference from assay components or compounds.
The TR-FRET signal measurement from this assay, given as an IC50 measurement, is a measure of a test compound's ability to interfere with the phosphorylation of the peptide substrate, that is it inhibits the phosphorylation of the substrate peptide by DYRK1A, and is thus a measure of the test compound's ability to inhibit the activity of DYRK1A.
• 1. Human DYRK1A: from Invitrogen. Part #PV3997 • 2. Substrate Peptide: […] • 3. IMAP TR-FRET IPP Explorer Kit: from Molecular Devices. Part #R8157 • 4. Kinase Assay Buffer (KAB): 10 mM HEPES pH 7.0, 50 mM NaCl, 5 mM MgCl2, 1 mM DTT, 1 mM NaVO4, 200 μg/mL BSA (0.02%) • 5. Assay Plate: Remp polypropylene clear 384-well microplate. […] Detection Plate: Costa black 384-well microplate.
• 1. Transfer 1.5 μL of 20× compound solution to each well of an assay plate. • 2. Add to each well 22.5 μL of KAB Buffer. • 3. Add to each well 3 μL of the solution of DYRK1A and ATP. […] Add to each well 3 μL of the substrate peptide. The assay concentration is 1.0 μM • 5. Incubate the assay plates at 37° C. for 60 minutes. • 6. Add 18 μL of Detection Solution (1:800 diluted Progress bead stock, 1:400 diluted Tb stock, 80% Buffer A, and 20% Buffer B) into each well of detection plates. • 7. Transfer 6 μL of assay solution from the assay plate to the detection plate. • 8. Shake detection plates for 30 minutes. • 9. Read plates in Envision with wavelength set at excitation 340 nm for Tb, emission 490 nm, and […].

[1] = read-out: Enzyme IC50 (μM) DYRK1B

T1 sequence (Q9Y463 whole entry): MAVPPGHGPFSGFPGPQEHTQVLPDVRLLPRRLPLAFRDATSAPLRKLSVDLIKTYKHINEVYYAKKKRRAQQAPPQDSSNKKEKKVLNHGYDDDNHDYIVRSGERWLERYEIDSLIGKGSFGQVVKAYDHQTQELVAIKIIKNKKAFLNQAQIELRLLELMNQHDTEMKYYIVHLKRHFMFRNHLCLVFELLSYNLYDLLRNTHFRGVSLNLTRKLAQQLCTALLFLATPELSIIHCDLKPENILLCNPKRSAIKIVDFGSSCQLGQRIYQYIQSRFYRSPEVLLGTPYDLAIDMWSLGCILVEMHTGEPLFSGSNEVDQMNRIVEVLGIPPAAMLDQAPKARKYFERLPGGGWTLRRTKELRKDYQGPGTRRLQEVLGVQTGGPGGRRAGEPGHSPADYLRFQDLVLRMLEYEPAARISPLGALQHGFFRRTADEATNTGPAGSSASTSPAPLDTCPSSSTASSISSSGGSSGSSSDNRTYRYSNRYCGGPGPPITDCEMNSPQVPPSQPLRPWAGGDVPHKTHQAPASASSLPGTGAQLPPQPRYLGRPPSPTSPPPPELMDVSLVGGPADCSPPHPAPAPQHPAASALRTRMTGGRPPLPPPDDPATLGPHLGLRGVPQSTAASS

| SMILES | IC50 (Human DYRK1B; [1]) [µM] | IC50 (Human DYRK1A) [µM] | IC50 (Human DYRK1B; Enzyme IC50 (μM) DYRK1B) [µM] | also measured |
| --- | --- | --- | --- | --- |
| CC(NC(=O)c1ccc(Cl)c(NC(=O)c2cc3cnc(N4CCOCC4)nc3[nH]c2=O)c1)c1cccc(Cl)c1 (racemic) [Example 143, 2-Morpholin-4-yl-7-oxo-7,8-dihydro-pyrido[2,3-d]pyrimidine-6-carboxylic acid {2-chloro-5-[1-(3-chloro-phenyl)-ethylcarbamoyl]-phenyl}-amide] | – | – | – | inhibition at 10 µM (Human DYRK1B): 24%; inhibition at 10 µM (Human DYRK1A): 57% |
| COc1ncc2cc(C(=O)Nc3cc(C(=O)O)ccc3Cl)c(=O)[nH]c2n1 [Example 22, 4-Chloro-3-[(2-methoxy-7-oxo-7,8-dihydro-pyrido[2,3-d]pyrimidine-6-carbonyl)-amino]-benzoic acid] | 2.73 | 0.601 | – | – |
| COc1ncc2cc(C(=O)Nc3cc(C(=O)OCc4ccccc4)ccc3C)c(=O)[nH]c2n1 [Example 26, 3-[(2-Methoxy-7-oxo-7,8-dihydro-pyrido[2,3-d]pyrimidine-6-carbonyl)-amino]-4-methyl-benzoic acid benzyl ester] | 0.496 | 0.323 | – | – |
| COc1ncc2cc(C(=O)Nc3cc(C(=O)NCc4ccccc4)ccc3C)c(=O)[nH]c2n1 [Example 27, 2-Methoxy-7-oxo-7,8-dihydro-pyrido[2,3-d]pyrimidine-6-carboxylic acid (5-benzylcarbamoyl-2-methyl-phenyl)-amide] | 2 | 0.376 | – | – |
| COC(=O)c1ccc(C)c(NC(=O)c2cc3cnc(N4CCOCC4)nc3[nH]c2=O)c1 [Example 29, 4-Methyl-3-[(2-morpholin-4-yl-7-oxo-7,8-dihydro-pyrido[2,3-d]pyrimidine-6-carbonyl)-amino]-benzoic acid methyl ester] | 0.12 | 0.0859 | – | – |
| COC(=O)c1ccc(Cl)c(NC(=O)c2cc3cnc(N4CCOCC4)nc3[nH]c2=O)c1 [Example 33, 4-Chloro-3-[(2-morpholin-4-yl-7-oxo-7,8-dihydro-pyrido[2,3-d]pyrimidine-6-carbonyl)-amino]-benzoic acid methyl ester] | 0.128 | 0.095 | – | – |
| COC(=O)c1ccc(Cl)c(NC(=O)c2cc3cnc(N4CCCCC4)nc3[nH]c2=O)c1 [Example 34, 4-Chloro-3-[(7-oxo-2-piperidin-1-yl-7,8-dihydro-pyrido[2,3-d]pyrimidine-6-carbonyl)-amino]-benzoic acid methyl ester] | 0.06 | 0.05 | – | – |
| COC(=O)c1ccc(Cl)c(NC(=O)c2cc3cnc(N4CCNCC4)nc3[nH]c2=O)c1 [Example 37, 4-Chloro-3-[(7-oxo-2-piperazin-1-yl-7,8-dihydro-pyrido[2,3-d]pyrimidine-6-carbonyl)-amino]-benzoic acid methyl ester] | 0.405 | 0.468 | – | – |
| CCOCCN(CCOCC)c1ncc2cc(C(=O)Nc3cc(C(=O)OC)ccc3Cl)c(=O)[nH]c2n1 [Example 40, 3-({2-[Bis-(2-ethoxy-ethyl)-amino]-7-oxo-7,8-dihydro-pyrido[2,3-d]pyrimidine-6-carbonyl}-amino)-4-chloro-benzoic acid methyl ester] | 0.22 | 0.208 | – | – |
| COC(=O)c1ccc(Cl)c(NC(=O)c2cc3cnc(NCCO)nc3[nH]c2=O)c1 [Example 41, 4-Chloro-3-{[2-(2-hydroxy-ethylamino)-7-oxo-7,8-dihydro-pyrido[2,3-d]pyrimidine-6-carbonyl]amino}-benzoic acid methyl ester] | 0.07 | 0.0796 | – | – |
| CCOCCNc1ncc2cc(C(=O)Nc3cc(C(=O)OC)ccc3Cl)c(=O)[nH]c2n1 [Example 42, 4-Chloro-3-{[2-(2-ethoxy-ethylamino)-7-oxo-7,8-dihydro-pyrido[2,3-d]pyrimidine-6-carbonyl]-amino}-benzoic acid methyl ester] | – | – | – | inhibition at 10 µM (Human DYRK1B): 39%; inhibition at 10 µM (Human DYRK1A): 60% |
| COC(=O)c1ccc(F)c(NC(=O)c2cc3cnc(OC)nc3[nH]c2=O)c1 [Example 43, 4-Fluoro-3-[(2-methoxy-7-oxo-7,8-dihydro-pyrido[2,3-d]pyrimidine-6-carbonyl)-amino]-benzoic acid methyl ester] | – | 9.8 | – | inhibition at 10 µM (Human DYRK1B): 41% |
| COc1ncc2cc(C(=O)Nc3cc(C(=O)Nc4ccccc4)ccc3Cl)c(=O)[nH]c2n1 [Example 49, 2-Methoxy-7-oxo-7,8-dihydro-pyrido[2,3-d]pyrimidine-6-carboxylic acid (2-chloro-5-phenylcarbamoyl-phenyl)-amide] | – | – | 2.97 | – |
| COc1ncc2cc(C(=O)Nc3cc(C(=O)N(C)Cc4cccc(Cl)c4)ccc3Cl)c(=O)[nH]c2n1 [Example 65, 2-Methoxy-7-oxo-7,8-dihydro-pyrido[2,3-d]pyrimidine-6-carboxylic acid {2-chloro-5-[(3-chloro-benzyl)-methyl-carbamoyl]-phenyl}-amide] | – | – | 0.586 | – |
| COc1ncc2cc(C(=O)Nc3cc(C(=O)NCCc4cccc(Cl)c4)ccc3Cl)c(=O)[nH]c2n1 [Example 71, 2-Methoxy-7-oxo-7,8-dihydro-pyrido[2,3-d]pyrimidine-6-carboxylic acid {2-chloro-5-[2-(3-chloro-phenyl)-ethylcarbamoyl]-phenyl}-amide] | – | – | 0.135 | – |
| Cc1ncc2cc(C(=O)Nc3cc(C(=O)NC(CCN)c4ccccc4)ccc3Cl)c(=O)[nH]c2n1 (centres unmarked) [Example 112, N-(5-(3-Amino-1-phenylpropylcarbamoyl)-2-chlorophenyl)-2-methyl-7-oxo-7,8-dihydropyrido[2,3-d]pyrimidine-6-carboxamide hydrochloride] | – | – | 0.018 | – |
| CN1CCN(CCCNc2ncc3cc(C(=O)Nc4cc(C(=O)NC(CCN)c5ccccc5)ccc4Cl)c(=O)[nH]c3n2)CC1 (centres unmarked) [Example 120, N-(5-(3-Amino-1-phenylpropylcarbamoyl)-2-chlorophenyl)-2-(3-(4-methylpiperazin-1-yl)propylamino)-7-oxo-7,8-dihydropyrido[2,3-d]pyrimidine-6-carboxamide] | – | – | < 0.0046 | – |
| COc1ncc2cc(C(=O)Nc3cc(C(=O)N[C@@H](CCN)c4cccc(Cl)c4)ccc3Cl)c(=O)[nH]c2n1 [Example 136, 2-Methoxy-7-oxo-7,8-dihydro-pyrido[2,3-d]pyrimidine-6-carboxylic acid {5-[(S)-3-amino-1-(3-chloro-phenyl)-propylcarbamoyl]-2-chloro-phenyl}-amide] | – | – | 2.55 | – |
| Cc1ncc2cc(C(=O)Nc3cc(C(=O)N[C@H](CCN)c4ccccc4)ccc3Cl)c(=O)[nH]c2n1 [Example 168, (R)—N-(5-(3-Amino-1-phenylpropylcarbamoyl)-2-chlorophenyl)-2-methyl-7-oxo-7,8-dihydropyrido[2,3-d]pyrimidine-6-carboxamide hydrochloride] | – | – | < 0.0046 | – |
| COc1nc(C)c2cc(C(=O)Nc3cc(C(=O)NC(CCN)c4ccccc4)ccc3Cl)c(=O)[nH]c2n1 (centres unmarked) [Example 169, N-(5-(3-Amino-1-phenylpropylcarbamoyl)-2-chlorophenyl)-2-methoxy-4-methyl-7-oxo-7,8-dihydropyrido[2,3-d]pyrimidine-6-carboxamide2,2,2-trifluoroacetate] | – | – | 0.101 | – |
| COc1ncc2cc(C(=O)Nc3cc(C(=O)NC(CCCCN)c4ccccc4)ccc3Cl)c(=O)[nH]c2n1 (centres unmarked) [Example 186, N-(5-(5-Amino-1-phenylpentylcarbamoyl)-2-chlorophenyl)-2-methoxy-7-oxo-7,8-dihydropyrido[2,3-d]pyrimidine-6-carboxamide] | – | – | 1.01 | – |
| COc1ncc2cc(C(=O)Nc3cc(C(=O)NC(CCCN)c4ccccc4)ccc3Cl)c(=O)[nH]c2n1 (centres unmarked) [Example 189, N-(5-(4-Amino-1-phenylbutylcarbamoyl)-2-chlorophenyl)-2-methoxy-7-oxo-7,8-dihydropyrido[2,3-d]pyrimidine-6-carboxamide] | – | – | 0.0214 | – |
| COc1ncc2cc(C(=O)Nc3cc(C(=O)NC(CCN)C4CCCCC4)ccc3Cl)c(=O)[nH]c2n1 (centres unmarked) [Example 193, N-(5-(3-Amino-1-cyclohexylpropylcarbamoyl)-2-chlorophenyl)-2-methoxy-7-oxo-7,8-dihydropyrido[2,3-d]pyrimidine-6-carboxamide 2,2,2-trifluoroacetate] | – | – | 0.615 | – |
